Experimental data published in patent US5591741A, “Fungicidal spiroheterocyclic derivatives” (American Cyanamid Company, priority 1993, dated 1997).

Tests used:
Pyricularia oryzae = assay type: in vivo; settings: rice seedlings, direct therapeutic foliar spray, 600 ppm, 4-5 days
Leptosphaeria nodorum = assay: Activity against wheat leafspot (LN); assay type: in vivo; settings: direct therapeutic foliar spray, 600 ppm, 6-8 days
Protocol: (d) Activity against wheat leafspot (Leptosphaeria nodorum; LN.) The test is a direct therapeutic foliar spray. Leaves of wheat plants (cv Norman), at the single leaf stage, are inoculated by spraying with an aqueous suspension containing 1.5×10^6 conidia/ml. The inoculated plants are kept for 24 hours in a high humidity compartment prior to treatment. The plants are sprayed with a solution of the test compound at a dosage of 600 ppm using an automated sprayline as described under (a). After drying, the plants are kept for 6-8 days at 22° C. and moderate humidity (70%). Assessment is based on the density of lesions per leaf compared with that on leaves of control plants. The extent of disease control in all the above tests is expressed as a rating compared with either an untreated control or a diluent-sprayed-control, according to the criteria: […]

Botrytis cinerea = assay: Direct protectant activity against broad bean grey mould (BCB); assay type: in vivo; settings: direct protectant foliar spray, 600 ppm, 4 days
Protocol: (c) Direct protectant activity against broad bean grey mould (Botrytis cinerea; BCB) The test is a direct protectant foliar spray. The upper surfaces of leaves of broad bean plants with two leaf pairs (cv The Sutton) are sprayed with the test compound at a dosage of 600 ppm using an automated sprayline as described under (a). 24 hours after spraying the leaves are inoculated with an aqueous suspension containing 10^6 conidia/ml. For 4 days after inoculation plants are kept in a high humidity compartment at 22° C. Disease is assessed 4 days after inoculation, based on the percentage of leaf surface area covered by lesions. The extent of disease control in all the above tests is expressed as a rating compared with either an untreated control or a diluent-sprayed-control, according to the criteria: […]

Plasmopara viticola = assay: Antisporulant activity against vine downy mildew (PVA); assay type: in vivo; settings: vine leaves, antisporulant foliar spray, 600 ppm, 750 l/ha
Protocol: (a) Antisporulant activity against vine downy mildew (Plasmopara viticola; PVA) The test is a direct antisporulant one using a foliar spray. The lower surfaces of leaves of whole vine plants (cv Cabernet Sauvignon), approximately 8 cm high, are inoculated by spraying with an aqueous suspension containing 5×10^4 zoosporangia/ml. The inoculated plants are kept for 24 hours at 21° C. in a high humidity compartment, then 24 hours at glasshouse ambient temperature and humidity. Infected leaves are sprayed on their lower surfaces with a solution of active material in 1:1 water/acetone containing 0.04% "TWEEN 20" (Trade Mark; a polyoxyethylene sorbitan ester surfactant). Plants are treated using an automated sprayline with an atomising nozzle. The concentration of the compound is 600 ppm, and the spray volume is 750 l/ha. After spraying, the plants are returned to normal glasshouse conditions for 96 hours and are then transferred to the high humidity compartment for 24 hours to induce sporulation. Assessment is based on the percentage of the leaf area covered by sporulation compared with that on control leaves. The extent of disease control in all the above tests is expressed as a rating compared with either an untreated control or a diluent-sprayed-control, according to the criteria: […]

Alternaria solani = assay: Activity against tomato early blight (AS); assay type: in vivo; settings: Table VI; tomato seedlings, contact prophylactic foliar spray, 4 days
Protocol: b) Activity against tomato early blight (Alternaria solani; AS) This test measures the contact prophylactic activity of test compounds applied as a foliar spray. Tomato seedlings (cv Outdoor Girl) are grown to the stage at which the second true leaf is expanded. The plants are treated using an automated sprayline as described under (a). Test compounds are applied as solutions or suspensions in a mixture of acetone and water (50:50 v/v) containing 0.04% surfactant ("TWEEN 20"--Trade Mark). After drying the plants are kept for 24 hours in a glasshouse at 20° C. and 40% R.H., followed by inoculation of the leaf upper surfaces with a suspension of A. solani conidia containing 10^4 spores/ml. For 4 days after inoculation plants are kept moist in a humidity compartment at 21° C. Disease is assessed 4 days after inoculation, based on the percentage of leaf surface area covered by lesions when compared with control plants. The extent of disease control in all the above tests is expressed as a rating compared with either an untreated control or a diluent-sprayed-control, according to the criteria: […]

[1] = system: Erysiphe graminis f.sp. hordei; assay: Activity against barley powdery mildew, direct therapeutic (EGT); assay type: in vivo; settings: direct therapeutic foliar spray, 600 ppm, up to 7 days
Protocol: (e) Activity against barley powdery mildew (Erysiphe graminis f.sp. hordei; EGT) The test is a direct therapeutic foliar spray. Leaves of barley seedlings, (cv. Golden Promise) at the single leaf stage are inoculated by dusting with mildew conidia one day prior to treatment with the test compound. The inoculated plants are kept overnight at glasshouse ambient temperature (18° C.) and humidity (40%) prior to treatment. The plants are sprayed with the test compound at a dosage of 600 ppm using an automated sprayline as described under (a). After drying, plants are returned to a compartment at 18° C. and 40% humidity for up to 7 days. Assessment is based on the percentage of leaf area covered by sporulation compared with that on leaves of control plants. The extent of disease control in all the above tests is expressed as a rating compared with either an untreated control or a diluent-sprayed-control, according to the criteria: […]

Phytophthora infestans = assay type: in vivo; settings: tomato, direct protectant foliar spray
Rhizoctonia solani = assay: Activity against Rhizoctonia in-vitro (RSI); assay type: cell-based; settings: 10 ppm, 10 days, 20° C., mycelial growth
Protocol: (i) Activity against Rhizoctonia in-vitro (Rhizoctonia solani: RSI) This test measures the in-vitro activity of compounds against R. solani that causes stem and root rots. The test compound in acetone is added into 4 ml aliquots of half strength Potato Dextrose Broth dispensed in 25-compartment petri dishes to give final concentrations of 10 ppm. The fungal inoculum consists of mycelial fragments of R. solani growth in half strength PDB in shaken culture flasks and added to the broth to provide 5×10^4 fragments/ml broth. Petri dishes are incubated at 20° C. for 10 days until the assessment of mycelial growth. The extent of disease control in all the above tests is expressed as a rating compared with either an untreated control or a diluent-sprayed-control, according to the criteria: […]

[2] = system: Pseudocercosporella herpotrichoides; assay: Activity against wheat eyespot in-vitro (PHI); assay type: cell-based; settings: 10 ppm, 10 days, 20° C., mycelial growth
Protocol: (h) Activity against wheat eyespot in-vitro (Pseudocercosporella herpotrichoides; pHI) This test measures the in vitro activity of compounds against the fungus causing wheat eyespot. The test compound is dissolved or suspended in acetone and is added into 4 ml aliquots of half strength Potato Dextrose Broth (PDB) dispended in 25-compartment petri dishes to give a final concentration of 10ppm. The fungal inoculum consists of mycelial fragments of P. herpotrichoides grown in half strength PDB in shaken flasks and added to the broth to provide 5×10^4 fragments/ml broth. Petri dishes are incubated at 20° C. for 10 days until the assessment of mycelial growth. The extent of disease control in all the above tests is expressed as a rating compared with either an untreated control or a diluent-sprayed-control, according to the criteria: […]

[3] = system: Erysiphe graminis f.sp. hordei; assay: Direct protectant activity against barley powdery mildew (EGP); assay type: in vivo; settings: direct protectant foliar spray, 8 days
Protocol: (f) Direct protectant activity against barley powdery mildew (Erysiphe graminis f.sp. hordei; EGP) The test is a direct protectant foliar spray. Leaves of barley seedlings (cv Golden Promise) at the single leaf stage are sprayed with the test compound as described under (a). After drying, the plants are kept for 24 hours in a glasshouse at 18° C. and 40% R.H. Then the plants are inoculated by dusting with mildew conidia and kept at 18° C. and 40% R.H. for 8 days. Assessment is based on the percentage of leaf area covered by sporulation compared with that on leaves of control plants. The extent of disease control in all the above tests is expressed as a rating compared with either an untreated control or a diluent-sprayed-control, according to the criteria: […]

Venturia inaequalis = assay: Activity against apple scab in-vitro (VII); assay type: cell-based; settings: 10 ppm, 10 days, 20° C., mycelial growth
Protocol: (j) Activity against apple scab in-vitro (Venturia inaequalis: VII) This test measures the in-vitro activity of compounds against V. inaequalis that causes apple scab. The test compound in acetone is added into 4 ml aliquots of half strength Potato Dextrose Broth dispensed in 25-compartment petri dishes to give final concentrations of 10 ppm. The fungal inoculum consists of mycelial fragments and spores of V. inaequalis grown on malt agar and added to the broth to provide 5×10^4 propagules/ml broth. Petri dishes are incubated at 20° C. for 10 days until the assessment of mycelial growth. The extent of disease control in all the above tests is expressed as a rating compared with either an untreated control or a diluent-sprayed-control, according to the criteria: […]

Question: What does the source list for `CC(C)(C)C1CCC2(CC1)CC(N1CCCCC1)CO2` (stereo not drawn) [Compound 10]?
Answer: disease control rating PO (Pyricularia oryzae): 0 (less than 50% disease control); disease control rating LN (Leptosphaeria nodorum): 1 (about 50-80% disease control); disease control rating BCB (Botrytis cinerea): 2 (greater than 80% disease control); disease control rating PVA (Plasmopara viticola): 0 (less than 50% disease control); disease control rating AS (Alternaria solani): 0 (less than 50% disease control); disease control rating EGT [1]: 2 (greater than 80% disease control); disease control rating PIP (Phytophthora infestans): 0 (less than 50% disease control); disease control rating RSI (Rhizoctonia solani): 0 (less than 50% disease control); disease control rating PHI [2]: 1 (about 50-80% disease control); disease control rating EGP [3]: 2 (greater than 80% disease control); disease control rating VII (Venturia inaequalis): 1 (about 50-80% disease control)

Question: How did the “disease control rating PO” value (Pyricularia oryzae) turn out when `CC(C)(C)C1CCC2(CC1)CC(N1CCOCC1)CO2` (stereo not drawn) [Compound 11] was run?
Answer: 0 (less than 50% disease control)

Question: And the “disease control rating LN” value (Leptosphaeria nodorum)?
Answer: 0 (less than 50% disease control)

Question: And the “disease control rating BCB” value (Botrytis cinerea)?
Answer: 0 (less than 50% disease control)

Question: What about the “disease control rating PVA” value (Plasmopara viticola) of the same compound?
Answer: 0 (less than 50% disease control)

Question: And the “disease control rating AS” value (Alternaria solani)?
Answer: 0 (less than 50% disease control)

Question: What about the “disease control rating EGT” value [1] of the same compound?
Answer: 0 (less than 50% disease control)

Question: What about the “disease control rating PIP” value (Phytophthora infestans) of the same compound?
Answer: 0 (less than 50% disease control)

Question: And the “disease control rating RSI” value (Rhizoctonia solani)?
Answer: 0 (less than 50% disease control)

Question: And the “disease control rating PHI” value [2]?
Answer: 1 (about 50-80% disease control)

Question: What about the “disease control rating EGP” value [3] of the same compound?
Answer: 2 (greater than 80% disease control)

Question: And the “disease control rating VII” value (Venturia inaequalis)?
Answer: 1 (about 50-80% disease control)

Question: What does the source list for `CCCCN(CCCC)C1COC2(CCC(C(C)(C)C)CC2)C1` (stereo not drawn) [Compound 12]?
Answer: disease control rating PO (Pyricularia oryzae): 0 (less than 50% disease control); disease control rating LN (Leptosphaeria nodorum): 0 (less than 50% disease control); disease control rating BCB (Botrytis cinerea): 2 (greater than 80% disease control); disease control rating PVA (Plasmopara viticola): 0 (less than 50% disease control); disease control rating AS (Alternaria solani): 0 (less than 50% disease control); disease control rating EGT [1]: 2 (greater than 80% disease control); disease control rating PIP (Phytophthora infestans): 0 (less than 50% disease control); disease control rating RSI (Rhizoctonia solani): 0 (less than 50% disease control); disease control rating PHI [2]: 0 (less than 50% disease control); disease control rating EGP [3]: 2 (greater than 80% disease control); disease control rating VII (Venturia inaequalis): 2 (greater than 80% disease control)

Question: `CCCN(CCC)C1COC2(CCC(C(C)(C)C)CC2)C1` (stereo not drawn) [Compound 13] was tested. Which “disease control rating PO” value (Pyricularia oryzae) did it give?
Answer: 0 (less than 50% disease control)

Question: And the “disease control rating LN” value (Leptosphaeria nodorum)?
Answer: 0 (less than 50% disease control)

Question: And the “disease control rating BCB” value (Botrytis cinerea)?
Answer: 0 (less than 50% disease control)

Question: And the “disease control rating PVA” value (Plasmopara viticola)?
Answer: 0 (less than 50% disease control)

Question: And the “disease control rating AS” value (Alternaria solani)?
Answer: 0 (less than 50% disease control)

Question: And the “disease control rating EGT” value [1]?
Answer: 2 (greater than 80% disease control)

Question: And the “disease control rating PIP” value (Phytophthora infestans)?
Answer: 0 (less than 50% disease control)

Question: And the “disease control rating RSI” value (Rhizoctonia solani)?
Answer: 0 (less than 50% disease control)

Question: What about the “disease control rating PHI” value [2] of the same compound?
Answer: 0 (less than 50% disease control)

Question: And the “disease control rating EGP” value [3]?
Answer: 2 (greater than 80% disease control)

Question: What about the “disease control rating VII” value (Venturia inaequalis) of the same compound?
Answer: 2 (greater than 80% disease control)

Question: With `CCCCCCN(C)C1COC2(CCC(C(C)(C)C)CC2)C1` (stereo not drawn) [Compound 14] as the compound, how does the “disease control rating PO” value (Pyricularia oryzae) read?
Answer: 0 (less than 50% disease control)

Question: What about the “disease control rating LN” value (Leptosphaeria nodorum) of the same compound?
Answer: 1 (about 50-80% disease control)

Question: And the “disease control rating BCB” value (Botrytis cinerea)?
Answer: 0 (less than 50% disease control)

Question: And the “disease control rating PVA” value (Plasmopara viticola)?
Answer: 0 (less than 50% disease control)

Question: What about the “disease control rating AS” value (Alternaria solani) of the same compound?
Answer: 0 (less than 50% disease control)

Question: And the “disease control rating EGT” value [1]?
Answer: 2 (greater than 80% disease control)

Question: And the “disease control rating PIP” value (Phytophthora infestans)?
Answer: 0 (less than 50% disease control)

Question: What about the “disease control rating RSI” value (Rhizoctonia solani) of the same compound?
Answer: 1 (about 50-80% disease control)

Question: What about the “disease control rating PHI” value [2] of the same compound?
Answer: 2 (greater than 80% disease control)

Question: What about the “disease control rating EGP” value [3] of the same compound?
Answer: 2 (greater than 80% disease control)

Question: And the “disease control rating VII” value (Venturia inaequalis)?
Answer: 2 (greater than 80% disease control)

Question: What does the source list for `CC1CC(C)CN(C2COC3(CCC(C(C)(C)C)CC3)C2)C1` (stereo not drawn) [Compound 15]?
Answer: disease control rating PO (Pyricularia oryzae): 0 (less than 50% disease control); disease control rating LN (Leptosphaeria nodorum): 0 (less than 50% disease control); disease control rating BCB (Botrytis cinerea): 0 (less than 50% disease control); disease control rating PVA (Plasmopara viticola): 0 (less than 50% disease control); disease control rating AS (Alternaria solani): 0 (less than 50% disease control); disease control rating EGT [1]: 2 (greater than 80% disease control); disease control rating PIP (Phytophthora infestans): 0 (less than 50% disease control); disease control rating RSI (Rhizoctonia solani): 0 (less than 50% disease control); disease control rating PHI [2]: 0 (less than 50% disease control); disease control rating EGP [3]: 2 (greater than 80% disease control); disease control rating VII (Venturia inaequalis): 2 (greater than 80% disease control)
